Measured values as given in publication doi:10.1101/2025.05.02.651913 (bioRxiv, 2025).
Counter-ions that a name gives are not always drawn.

Legend:
[1] = test system: MPXV strain hMPXV/USA/MA001/2022 (Lineage B.1, Clade IIb); type: cell-based, Mpox virus (MPXV)

Molecule | Duplicate of Duplicate of Hits: No CPE [1] | other results
COC1(c2sc3c(N4CCOCC4)nc(-c4cnc(N)nc4)nc3c2C)COC1 [GNE-317] | 1 | CC50 (VK2/E6E7 cells): 201 nM; concentration at which toxicity was shown (VK2/E6E7 cells): 80 to 100 nM
C=CC(=O)Nc1cc(Nc2nccc(-c3c4n(c5ccccc35)CCCC4)n2)c(OC)cc1N(C)CCN(C)C [MC-Oritinib, Oritinib] | 1 | 
C=CC(=O)Nc1cc(Nc2nccc(-c3cn(C)c4ccccc34)n2)c(OC)cc1N(C)CCN(C)C.CS(=O)(=O)O [MC-Osimertinib (mesylate), Osimertinib (mesylate)] | 1 | 
COc1cc2ncnc(Nc3cccc(Br)c3)c2cc1OC [MC-PD153035, PD153035] | 1 | 
C=CC(=O)Nc1cc2c(Nc3ccc(F)c(Cl)c3)ncnc2cc1OC [MC-PF-6274484, PF-6274484] | 1 | 
C=CC(=O)N1C[C@H](COc2nc(Nc3cnn(C)c3)nc3[nH]cc(Cl)c23)[C@@H](OC)C1 [MC-PF-06459988, PF-06459988] | 1 | 
O=C(Nc1ccncc1)Nc1ccc(-c2nc(N3CCOCC3)nc(N3C4CCC3COC4)n2)cc1 [MC-PKI-179 (hydrochloride), PKI-179 (hydrochloride)] | 1 | 
O=C1Nc2ccc3ncsc3c2/C1=C/c1cnc[nH]1 [MC-PKR-IN-C16, PKR-IN-C16] | 1 | 
Cc1ccc(C(=O)Nc2ccc(CN3CCN(C)CC3)c(C(F)(F)F)c2)cc1C#Cc1cnc2cccnn12.Cl [MC-Ponatinib (hydrochloride), Ponatinib (hydrochloride)] | 1 | 
C=CC(=O)Nc1cccc(Oc2nc(Nc3ccc(N4CCN(C)CC4)cc3)nc3ccoc23)c1 [MC-Poseltinib, Poseltinib] | 1 | 
N[C@H]1CC[C@H](Nc2nc(Nc3ccc(C(=O)N4CCCCC4)cc3)c3ncn(-c4cccc(F)c4)c3n2)CC1 [MC-Purfalcamine, Purfalcamine] | 1 | 
O=C(NOCCO)c1cc(CN2OCCCC2=O)c(F)c(F)c1Nc1ccc(I)cc1F [MC-RO4987655, RO4987655] | 1 | 
C=CC(=O)Nc1cc(Nc2nccc(-c3cn(C)c4ccccc34)n2)c(OC)cc1OCCN(C)C [MC-Rezivertinib, Rezivertinib] | 1 | 
O=C(Nc1ccc2[nH]nc(-c3ccncc3)c2c1)[C@@H]1CCN(CC(=O)N2CCN(c3ccc(-c4ncccn4)cc3)CC2)C1 [MC-SCH772984, SCH772984] | 1 | 
O=C(N/N=C/c1c(O)ccc2ccccc12)c1cc(-c2ccc3ccccc3c2)n[nH]1 [MC-SKI-I, SKI-I] | 1 | 
CCN(CC)CCNC(=O)c1c(C)[nH]c(/C=C2\C(=O)Nc3ccc(Cl)cc32)c1C [MC-SU11652, SU11652] | 1 | 
COc1cc2ncnc(Nc3ccc(F)c(Cl)c3)c2cc1OCCN1CC2(CC2)C2(C1)OCCO2 [MC-Simotinib, Simotinib] | 1 | 
C=CC(=O)Nc1cc(Nc2nccc(Nc3cc(Cl)c(F)cc3C(C)(C)O)n2)c(OC)cc1N1CC[C@@H](N(C)C)C1 [MC-Sunvozertinib, Sunvozertinib] | 1 | 
CN(C)C/C=C/C(=O)Nc1cc2c(Nc3ccc(Cl)c(Br)c3)ncnc2cn1 [MC-Tarlox-TKI, Tarlox-TKI] | 1 | 
Cn1nccc1Nc1nccc(-c2cc3c(s2)C(C)(C)N(CCN2CCOCC2)C3=O)n1 [MC-Temuterkib, Temuterkib] | 1 | 
COc1cc2c(Nc3ccc(Cl)c(Cl)c3F)ncnc2cc1OC[C@@H]1C[C@@H]2CN(C)C[C@@H]2C1 [MC-Tesevatinib, Tesevatinib] | 1 | 

Molecule | Duplicate of Duplicate of Hits: No CPE [1] | other results
C#Cc1cccc(Nc2ncnc3cc(OC)c(NC(=O)N4C[C@H]5CCN(C)[C@H]5C4)cc23)c1 [MC-Theliatinib, Theliatinib] | 1 | 
C=CC(=O)N1CCC[C@@H](n2c(=O)n(-c3ccc(Oc4ccccc4)cc3)c3c(N)nccc32)C1 [MC-Tolebrutinib, Tolebrutinib] | 1 | 
CC(=O)Nc1cccc(-n2c(=O)n(C3CC3)c(=O)c3c(Nc4ccc(I)cc4F)n(C)c(=O)c(C)c32)c1.C[S+](C)[O-] [MC-Trametinib (DMSO solvate), Trametinib (DMSO solvate)] | 1 | 
C=CC(=O)Nc1cc2c(Nc3ccc(OCc4ccccn4)c(Cl)c3)ncnc2cc1OCCN1CCOCC1 [MC-Tuxobertinib, Tuxobertinib] | 1 | 
CCN1CCC(Nc2ccc3c(c2)/C(=C(\c2cccc(F)c2)c2ncc(C)[nH]2)C(=O)N3)CC1 [MC-Tyrosine kinase-IN-1, Tyrosine kinase-IN-1] | 1 | 
COc1ccc(N(C(=O)Oc2cc(C(=O)Nc3cccc(C(F)(F)F)c3)ccc2C)c2ccnc(Nc3ccc(N4CCN(C)CC4)cc3)n2)c(OC)c1 [MC-WH-4-025, WH-4-025] | 1 | 
C=CC(=O)N[C@H]1C=C(C)c2c(-c3cnc4ccccc4c3)c3c(N)ncnc3n2C1 [MC-Zipalertinib, Zipalertinib] | 1 | 
CCN1CCN(Cc2ccc(-c3cc4c(N[C@H](C)c5ccccc5)ncnc4[nH]3)cc2)CC1 [NKIL-AEE788 (NVP-AEE788), AEE788] | 1 | 
C=CC(=O)Nc1ccc2ncnc(Nc3ccc(OCc4cccc(F)c4)c(Cl)c3)c2c1.Cc1ccc(S(=O)(=O)O)cc1 [NKIL-AST-1306, Allitinib tosylate] | 1 | 
Cc1cc(C(=O)NOCCO)c(Nc2ccc(I)cc2F)n(C)c1=O [NKIL-AZD8330, AZD8330] | 1 | 
CNC(=O)CN1CCC(Oc2cc3c(Nc4cccc(Cl)c4F)ncnc3cc2OC)CC1 [NKIL-AZD8931 (Sapitinib), Sapitinib] | 1 | 
C=CC(=O)Nc1cc(Nc2nccc(-c3cn(C)c4ccccc34)n2)c(OC)cc1N(C)CCN(C)C [NKIL-AZD9291, Osimertinib] | 1 | 
CN(C)C/C=C/C(=O)Nc1cc2c(Nc3ccc(F)c(Cl)c3)ncnc2cc1O[C@H]1CCOC1 [NKIL-Afatinib (BIBW2992), Afatinib] | 1 | 
C=CC(=O)Nc1cccc(Nc2nc(Nc3ccc(NC4CN(CCF)C4)cc3OC)ncc2C(F)(F)F)c1 [NKIL-CNX-2006, CNX-2006] | 1 | 
O=C(c1ccc(F)c(F)c1Nc1ccc(I)cc1F)N1CC(O)([C@@H]2CCCCN2)C1 [NKIL-Cobimetinib (GDC-0973, RG7420), Cobimetinib] | 1 | 
COc1cc2ncnc(Nc3ccc(F)c(Cl)c3)c2cc1NC(=O)/C=C/CN1CCCCC1 [NKIL-Dacomitinib (PF299804, PF299), Dacomitinib] | 1 | 
Cc1c(CN2CCN(C(=O)[C@H](C)O)CC2)sc2c(N3CCOCC3)nc(-c3cnc(N)nc3)nc12 [NKIL-GDC-0980 (RG7422), Apitolisib] | 1 | 
C=CC(=O)Nc1ccc2ncnc(Nc3cccc(Br)c3)c2c1 [NKIL-PD168393, PD168393] | 1 | 
O=C(NOCC(O)CO)c1cc(Br)c(F)c(F)c1Nc1ccc(I)cc1F (centres unmarked) [NKIL-PD318088, PD318088] | 1 | 
COc1ccc(-c2cc3c(C)nc(N)nc3n([C@H]3CC[C@H](OCCO)CC3)c2=O)cn1 [NKIL-PF-04691502, PF-04691502] | 1 | 
O=C(NC[C@H](O)CO)c1ccncc1Nc1ccc(I)cc1F [NKIL-Pimasertib (AS-703026), Pimasertib] | 1 | 

Molecule | Duplicate of Duplicate of Hits: No CPE [1] | other results
COc1cc(F)c(F)c(Nc2ccc(I)cc2F)c1NS(=O)(=O)C1(C[C@H](O)CO)CC1 [NKIL-Refametinib (RDEA119, Bay 86-9766), Refametinib] | 1 | 
Cc1c[nH]c2nc(Nc3ccc(N4CCN(C)CC4)c(F)c3)nc(-c3cccc(CC#N)c3)c12 [NKIL-SGI-7079, SGI-7079] | 1 | 
Cn1c(=O)c(F)c(Nc2ccc(I)cc2F)c2c(=O)n(C[C@@H](O)CO)cnc21 [NKIL-TAK-733, TAK-733] | 1 | 
Nc1ccc(-c2ccc3ncc4ccc(=O)n(-c5cccc(C(F)(F)F)c5)c4c3c2)cn1 [NKIL-Torin 2, Torin 2] | 1 | 
Cc1nc2c(-c3cnc(N)nc3)nc(N3CCOCC3)nc2n1C(C)C [NKIL-VS-5584 (SB2343), VS-5584] | 1 | 
Cc1cnc(Nc2ccc(F)cc2Cl)nc1-c1c[nH]c(C(=O)N[C@H](CO)c2cccc(Cl)c2)c1 [NKIL-VX-11e, VX-11e] | 1 | 
COc1cc2ncnc(Nc3ccc(O)c(Br)c3)c2cc1OC [NKIL-WHI-P154, WHI-P154] | 1 | 
C=CC(=O)Nc1cccc(Oc2nc(Nc3ccc(N4CCN(C)CC4)cc3)ncc2Cl)c1 [NKIL-WZ3146, WZ3146] | 1 | 
C=CC(=O)Nc1cccc(Oc2nc(Nc3ccc(N4CCN(C)CC4)cc3OC)ncc2Cl)c1 [NKIL-WZ4002, WZ4002] | 1 | 
C=CC(=O)Nc1cccc(Sc2nc(Nc3ccc(N4CCN(C)CC4)cc3)ncc2Cl)c1 [NKIL-WZ8040, WZ8040] | 1 | 
(S)-Sunvozertinib [MC-(S)-Sunvozertinib] | 1 | 
Afatinib impurity 11 [MC-Afatinib impurity 11] | 1 | 
FGFR1/DDR2 inhibitor 1 [MC-FGFR1/DDR2 inhibitor 1] | 1 | 
Gilmelisib [MC-Gilmelisib] | 1 | 
JAK-IN-23 [MC-JAK-IN-23] | 1 | 
JNK-IN-7 [MC-JNK-IN-7] | 1 | 
KIRA-7 [MC-KIRA-7] | 1 | 
Mutant EGFR inhibitor [MC-Mutant EGFR inhibitor] | 1 | 
SBI-581 [MC-SBI-581] | 1 | 
XMU-MP-3 [MC-XMU-MP-3] | 1 | 
ZX-29 [MC-ZX-29] | 1 | 
